According to the supplement of paper PMC13207355:

Tests used:
Details in all cases: exposure time: 72 h
[1] = test system: E13 (patient-derived glioblastoma stem cells of classical subtype); experiment: surviving fraction (nuclei count normalised to DMSO); higher = more cells surviving (less toxic)
[2] = test system: E21 (patient-derived glioblastoma stem cells of mesenchymal subtype); experiment: as above
[3] = test system: E28 (patient-derived glioblastoma stem cells of classical subtype); experiment: as above
[4] = test system: E31 (patient-derived glioblastoma stem cells of proneural subtype); experiment: as above
[5] = test system: E34 (patient-derived glioblastoma stem cells of proneural subtype); experiment: as above
[6] = test system: E57 (patient-derived glioblastoma stem cells of mesenchymal subtype); experiment: as above
[7] = test system: FT3469 (normal neural stem cell line); experiment: as above
[8] = test system: E13; experiment: phenotypic distance (Euclidean, principal components) from DMSO controls (arbitrary units); higher = stronger morphological change
[9] = test system: E21; experiment: as above
[10] = test system: E28; experiment: as above
[11] = test system: E31; experiment: as above
[12] = test system: E34; experiment: as above
[13] = test system: E57; experiment: as above
[14] = test system: FT3469; experiment: as above
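For phenotypic distance (Euclidean, principal components) from DMSO controls in this document: cell Painting imaging in 384-well plates, CellProfiler features reduced to at least 20 principal components, Euclidean distance versus same-plate DMSO vehicle wells (0.1% v/v), median over six images per well.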
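For surviving fraction (nuclei count normalised to DMSO) in this document: nuclei counted by high-content imaging of Hoechst-stained cells in laminin-coated 384-well plates, relative to 0.1% DMSO vehicle wells, with staurosporine as cell-death control.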

Cc1cc(C(C)(C)CC(C)(C)C)ccc1OCCOCC[N+](C)(C)Cc1ccccc1 [Methyl benzethonium chloride]
Details | phenotypic distance | surviving fraction
[1], 4.1 nM | – | 1.06
[1], 37 nM | – | 0.985
[1], 111.1 nM | – | 1
[1], 333.3 nM | – | 0.905
[1], 1000 nM | – | 0.77
[1], 3000 nM | – | 0.0607
[2], 4.1 nM | – | 1.05
[2], 37 nM | – | 1.08
[2], 111.1 nM | – | 1.13
[2], 333.3 nM | – | 1.09
[2], 1000 nM | – | 1.11
[2], 3000 nM | – | 0.0579
[3], 4.1 nM | – | 1.18
[3], 37 nM | – | 1.12
[3], 111.1 nM | – | 1.01
[3], 333.3 nM | – | 1.03
[3], 1000 nM | – | 0.915
[3], 3000 nM | – | 0.122
[4], 4.1 nM | – | 1.14
[4], 37 nM | – | 1.3
[4], 111.1 nM | – | 0.971
[4], 333.3 nM | – | 1.04
[4], 1000 nM | – | 0.959
[4], 3000 nM | – | 0.0251
[5], 4.1 nM | – | 1.05
[5], 37 nM | – | 1.16
[5], 111.1 nM | – | 1.28
[5], 333.3 nM | – | 1.15
[5], 1000 nM | – | 0.97
[5], 3000 nM | – | 0.507
[6], 4.1 nM | – | 1.1
[6], 37 nM | – | 1.08
[6], 111.1 nM | – | 0.952
[6], 333.3 nM | – | 1.08
[6], 1000 nM | – | 0.992
[6], 3000 nM | – | 0.232
[7], 4.1 nM | – | 1.08
[7], 37 nM | – | 1.23
[7], 111.1 nM | – | 1.28
[7], 333.3 nM | – | 0.993
[7], 1000 nM | – | 0.937
[7], 3000 nM | – | 0.135
[8], 4.1 nM | 0.567 | –
[8], 37 nM | 0.631 | –
[8], 111.1 nM | 0.7 | –
[8], 333.3 nM | 1.46 | –
[8], 1000 nM | 2.26 | –
[8], 3000 nM | 7.09 | –
[9], 4.1 nM | 0.505 | –
[9], 37 nM | 0.8 | –
[9], 111.1 nM | 1.42 | –
[9], 333.3 nM | 1.89 | –
[9], 1000 nM | 1.88 | –
[9], 3000 nM | 7.45 | –
[10], 4.1 nM | 0.909 | –
[10], 37 nM | 0.85 | –
[10], 111.1 nM | 0.845 | –
[10], 333.3 nM | 1.63 | –
[10], 1000 nM | 1.45 | –
[10], 3000 nM | 5.99 | –
[11], 4.1 nM | 0.64 | –
[11], 37 nM | 1.09 | –
[11], 111.1 nM | 0.959 | –
[11], 333.3 nM | 1.67 | –
[11], 1000 nM | 1.56 | –
[11], 3000 nM | 10.6 | –
[12], 4.1 nM | 0.669 | –
[12], 37 nM | 1.03 | –
[12], 111.1 nM | 3.75 | –
[12], 333.3 nM | 1.62 | –
[12], 1000 nM | 1.37 | –
[12], 3000 nM | 2.97 | –
[13], 4.1 nM | 0.767 | –
[13], 37 nM | 0.775 | –
[13], 111.1 nM | 0.964 | –
[13], 333.3 nM | 1.11 | –
[13], 1000 nM | 1.42 | –
[13], 3000 nM | 5.11 | –
[14], 4.1 nM | 0.966 | –
[14], 37 nM | 0.81 | –
[14], 111.1 nM | 1.14 | –
[14], 333.3 nM | 1.12 | –
[14], 1000 nM | 0.916 | –
[14], 3000 nM | 5.6 | –

Clc1ccc(COC(Cn2ccnc2)c2ccc(Cl)cc2Cl)c(Cl)c1 (configuration not stated) [Miconazole]
Details | phenotypic distance | surviving fraction
[1], 4.1 nM | – | 0.787
[1], 12.3 nM | – | 1.01
[1], 37 nM | – | 0.925
[1], 111.1 nM | – | 0.818
[1], 333.3 nM | – | 0.709
[1], 1000 nM | – | 0.814
[1], 3000 nM | – | 0.539
[2], 4.1 nM | – | 0.897
[2], 12.3 nM | – | 1.05
[2], 37 nM | – | 0.979
[2], 111.1 nM | – | 1.01
[2], 333.3 nM | – | 1.02
[2], 1000 nM | – | 0.955
[2], 3000 nM | – | 0.823
[3], 4.1 nM | – | 1.09
[3], 12.3 nM | – | 1.19
[3], 37 nM | – | 1.06
[3], 111.1 nM | – | 1.13
[3], 333.3 nM | – | 1.07
[3], 1000 nM | – | 0.886
[3], 3000 nM | – | 0.537
[4], 4.1 nM | – | 1
[4], 12.3 nM | – | 1.04
[4], 37 nM | – | 1.37
[4], 111.1 nM | – | 0.936
[4], 333.3 nM | – | 1.13
[4], 1000 nM | – | 1.06
[4], 3000 nM | – | 0.976
[5], 4.1 nM | – | 0.9
[5], 12.3 nM | – | 0.972
[5], 37 nM | – | 1
[5], 111.1 nM | – | 0.977
[5], 333.3 nM | – | 1.01
[5], 1000 nM | – | 0.981
[5], 3000 nM | – | 0.82
[6], 4.1 nM | – | 1.04
[6], 12.3 nM | – | 1.09
[6], 37 nM | – | 1.1
[6], 111.1 nM | – | 1.06
[6], 333.3 nM | – | 1.07
[6], 1000 nM | – | 0.918
[6], 3000 nM | – | 0.595
[7], 4.1 nM | – | 1.17
[7], 12.3 nM | – | 1.07
[7], 37 nM | – | 0.966
[7], 111.1 nM | – | 0.907
[7], 333.3 nM | – | 0.954
[7], 1000 nM | – | 0.875
[7], 3000 nM | – | 0.492
[8], 4.1 nM | 0.853 | –
[8], 12.3 nM | 0.53 | –
[8], 37 nM | 0.487 | –
[8], 111.1 nM | 0.696 | –
[8], 333.3 nM | 1.05 | –
[8], 1000 nM | 1.1 | –
[8], 3000 nM | 2.12 | –
[9], 4.1 nM | 0.64 | –
[9], 12.3 nM | 0.477 | –
[9], 37 nM | 0.693 | –
[9], 111.1 nM | 0.637 | –
[9], 333.3 nM | 0.796 | –
[9], 1000 nM | 1.19 | –
[9], 3000 nM | 2.32 | –
[10], 4.1 nM | 0.619 | –
[10], 12.3 nM | 0.863 | –
[10], 37 nM | 0.65 | –
[10], 111.1 nM | 0.493 | –
[10], 333.3 nM | 0.784 | –
[10], 1000 nM | 0.766 | –
[10], 3000 nM | 1.23 | –
[11], 4.1 nM | 0.925 | –
[11], 12.3 nM | 0.493 | –
[11], 37 nM | 1.32 | –
[11], 111.1 nM | 0.834 | –
[11], 333.3 nM | 1.3 | –
[11], 1000 nM | 1.07 | –
[11], 3000 nM | 1.51 | –
[12], 4.1 nM | 0.501 | –
[12], 12.3 nM | 0.465 | –
[12], 37 nM | 0.883 | –
[12], 111.1 nM | 0.636 | –
[12], 333.3 nM | 0.903 | –
[12], 1000 nM | 0.701 | –
[12], 3000 nM | 1.2 | –
[13], 4.1 nM | 0.349 | –
[13], 12.3 nM | 0.269 | –
[13], 37 nM | 0.652 | –
[13], 111.1 nM | 1.25 | –
[13], 333.3 nM | 0.929 | –
[13], 1000 nM | 1.89 | –
[13], 3000 nM | 3.89 | –
[14], 4.1 nM | 0.444 | –
[14], 12.3 nM | 0.593 | –
[14], 37 nM | 0.461 | –
[14], 111.1 nM | 0.559 | –
[14], 333.3 nM | 0.587 | –
[14], 1000 nM | 0.791 | –
[14], 3000 nM | 2.66 | –
